Assay results from patent publication US9598423B2 (BRISTOL-MYERS SQUIBB COMPANY, priority 2013, dated 2017).

Columns and labels:
CK1ε = CK1ε (Homo sapiens (Human), UniProt P49674); assay: CK1ε kinase assay (Caliper LABCHIP electrophoretic separation of fluoresceinated peptide substrate and product); assay type: biochemical; conditions: 200 pM CK1ε, 50 μM ATP, 1.5 μM peptide substrate, 22 hours at room temperature; read-out: CK1ε (IC50)
Procedure, shortened: (§1)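 Each reaction was incubated 22 hours at room temperature and terminated with EDTA. Read-out was microfluidic electrophoretic separation of fluoresceinated substrate and phospho-product.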

CK1δ = CK1δ (Homo sapiens (Human), UniProt P48730); assay: CK1δ kinase assay (Caliper LABCHIP electrophoretic separation of fluoresceinated peptide substrate and product); assay type: biochemical; conditions: 200 pM CK1δ, 50 μM ATP, 1.5 μM peptide substrate, 22 hours at room temperature; read-out: CK1δ (IC50)
Procedure, shortened: as §1

CK1δ, sequence (P48730 whole entry): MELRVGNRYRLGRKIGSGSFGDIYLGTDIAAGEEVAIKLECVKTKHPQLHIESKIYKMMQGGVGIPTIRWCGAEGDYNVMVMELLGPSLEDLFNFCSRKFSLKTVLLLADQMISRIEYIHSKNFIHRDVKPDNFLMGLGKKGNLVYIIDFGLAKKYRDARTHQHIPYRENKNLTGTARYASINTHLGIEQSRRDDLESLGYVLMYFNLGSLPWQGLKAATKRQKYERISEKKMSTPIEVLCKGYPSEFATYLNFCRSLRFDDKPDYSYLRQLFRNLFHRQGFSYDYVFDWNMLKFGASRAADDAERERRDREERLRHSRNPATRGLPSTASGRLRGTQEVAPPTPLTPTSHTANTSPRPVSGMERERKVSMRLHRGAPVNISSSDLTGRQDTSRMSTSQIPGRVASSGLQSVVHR
CK1ε, sequence (P49674 whole entry): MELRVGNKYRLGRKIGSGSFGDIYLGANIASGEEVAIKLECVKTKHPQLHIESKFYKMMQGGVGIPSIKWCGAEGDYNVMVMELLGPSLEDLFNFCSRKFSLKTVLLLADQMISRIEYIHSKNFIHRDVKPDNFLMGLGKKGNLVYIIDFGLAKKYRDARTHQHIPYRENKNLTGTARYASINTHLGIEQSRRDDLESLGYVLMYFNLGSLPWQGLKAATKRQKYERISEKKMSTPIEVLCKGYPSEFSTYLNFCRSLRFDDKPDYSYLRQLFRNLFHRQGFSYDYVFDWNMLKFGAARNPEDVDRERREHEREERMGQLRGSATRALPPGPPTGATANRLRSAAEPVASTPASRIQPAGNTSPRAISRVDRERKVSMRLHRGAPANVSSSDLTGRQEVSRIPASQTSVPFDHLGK

Molecule	IC50 (CK1ε)	IC50 (CK1δ)
NC(=O)c1c(-c2cccc(F)c2)nn2c1CN(C(=O)Nc1ccc(F)cc1)CC2 [Compound 16, 2-(3-Fluorophenyl)-N^5-(4-fluorophenyl)-6,7-dihydropyrazolo[1,5-a]pyrazine-3,5(4H)-dicarboxamide]	0.01 to 10 nM	0.01 to 10 nM
N#Cc1ccc(NC(=O)N2CCn3nc(-c4ccc(F)c(Cl)c4)c(C(N)=O)c3C2)cc1Cl [Compound 203, N^5-(3-Chloro-4-cyanophenyl)-2-(3-chloro-4-fluorophenyl)-6,7-dihydropyrazolo[1,5-a]pyrazine-3,5(4H)-dicarboxamide]	0.01 to 10 nM	0.01 to 10 nM
Cc1cc(-c2nn3c(c2C(N)=O)CN(C(=O)Nc2ccc(C#N)c(C(F)(F)F)c2)CC3)ccc1F [Compound 245, N^5-(4-Cyano-3-(trifluoromethyl)phenyl)-2-(4-fluoro-3-methylphenyl)-6,7-dihydropyrazolo[1,5-a] pyrazine-3,5(4H)-dicarboxamide]	0.01 to 10 nM	0.01 to 10 nM
N#Cc1ccc(NC(=O)N2CCn3nc(-c4ccc(F)c(F)c4)c(C(N)=O)c3C2)cc1C(F)(F)F [Compound 237, N^5-(4-Cyano-3-(trifluoromethyl)phenyl)-2-(3,4-difluorophenyl)-6,7-dihydropyrazolo [1,5-a]pyrazine-3,5(4H)-dicarboxamide]	0.01 to 10 nM	0.01 to 10 nM
NC(=O)c1c(-c2ccc(Cl)c(Cl)c2)nn2c1CN(C(=O)Nc1ccc(Cl)c(Cl)c1)CC2 [Compound 209]	0.01 to 10 nM	0.01 to 10 nM
COc1ccc(NC(=O)N2CCn3nc(-c4cccc(F)c4)c(C(N)=O)c3C2)cc1Cl [Compound 67, N^5-(3-Chloro-4-methoxyphenyl)-2-(3-fluorophenyl)-6,7-dihydropyrazolo[1,5-a]pyrazine-3,5(4H)-dicarboxamide]	0.01 to 10 nM	0.01 to 10 nM
COc1cccc(-c2nn3c(c2C(N)=O)CN(C(=O)Nc2ccc(Cl)c(Cl)c2)CC3)c1 [Compound 303, N^5-(3,4-Dichlorophenyl)-2-(3-methoxyphenyl)-6,7-dihydropyrazolo[1,5-a] pyrazine-3,5(4H)-dicarboxamide]	0.01 to 10 nM	0.01 to 10 nM
N#Cc1ccc(NC(=O)N2CCn3nc(-c4cc(F)c5cn[nH]c5c4)c(C(N)=O)c3C2)cc1F [Compound 324, N^5-(4-Cyano-3-fluorophenyl)-2-(4-fluoro-1H-indazol-6-yl)-6,7-dihydropyrazolo[1,5-a]pyrazine-3,5(4H)-dicarboxamide]	0.01 to 10 nM	0.01 to 10 nM
Cc1nc2cc(-c3nn4c(c3C(N)=O)CN(C(=O)Nc3ccc(C#N)cc3)CC4)cc(Cl)c2o1 [Compound 311, 2-(7-Chloro-2-methylbenzo[d]oxazol-5-yl)-N^5-(4-cyanophenyl)-6,7-dihydropyrazolo[1,5-a]pyrazine-3,5(4H)-dicarboxamide]	0.01 to 10 nM	0.01 to 10 nM
NC(=O)c1c(-c2ccc(F)c(Cl)c2)nn2c1CN(C(=O)Nc1ccc(F)c(C(F)(F)F)c1)CC2 [Compound 190, 2-(3-Chloro-4-fluorophenyl)-N^5-(4-fluoro-3-(trifluoromethyl)phenyl)-6,7-dihydropyrazolo[1,5-a] pyrazine-3,5(4H)-dicarboxamide]	0.01 to 10 nM	0.01 to 10 nM
CN(C)C(=O)c1cccc(-c2nn3c(c2C(N)=O)CN(C(=O)Nc2ccc(C#N)cc2)CC3)c1 [Compound 283, N^5-(4-Cyanophenyl)-2-(3-(dimethylcarbamoyl)phenyl)-6,7-dihydropyrazolo[1,5-a] pyrazine-3,5(4H)-dicarboxamide]	100 to 2000 nM	100 to 2000 nM
NC(=O)c1c(-c2cccc(F)c2)nn2c1CN(C(=O)Nc1ccc(Cl)c(Cl)c1)CC2 [Compound 49, N^5-(3,4-Dichlorophenyl)-2-(3-fluorophenyl)-6,7-dihydropyrazolo[1,5-a]pyrazine-3,5(4H)-dicarboxamide]	0.01 to 10 nM	0.01 to 10 nM
N#Cc1ccc(NC(=O)N2CCn3nc(-c4ccc(Cl)c(Cl)c4)c(C(N)=O)c3C2)cc1C(F)(F)F [Compound 208, N^5-(4-Cyano-3-(trifluoromethyl)phenyl)-2-(3,4-dichlorophenyl)-6,7-dihydropyrazolo[1,5-a] pyrazine-3,5(4H)-dicarboxamide]	0.01 to 10 nM	0.01 to 10 nM
Cc1cc(NC(=O)N2Cc3c(C(N)=O)c(-c4ccc(F)c(Cl)c4)nn3CC23CC3)ccc1C#N [Compound 344, 2′-(3-Chloro-4-fluorophenyl)-N^5′-(4-cyano-3-methylphenyl)-4′H-spiro[cyclopropane-1,6′-pyrazolo[1,5-a]pyrazine]-3′,5′(7′H)-dicarboxamide]	0.01 to 10 nM	0.01 to 10 nM
N#Cc1ccc(NC(=O)N2CCn3nc(-c4cc(Cl)c5[nH]ncc5c4)c(C(N)=O)c3C2)cc1F [Compound 316, 2-(7-Chloro-1H-indazol-5-yl)-N^5-(4-cyano-3-fluorophenyl)-6,7-dihydropyrazolo[1,5-a]pyrazine-3,5(4H)-dicarboxamide]	0.01 to 10 nM	0.01 to 10 nM
COc1ccc(NC(=O)N2CCn3nc(-c4ccc(F)c(Cl)c4)c(C(N)=O)c3C2)cc1C(F)(F)F [Compound 189, 2-(3-Chloro-4-fluorophenyl)-N^5-(4-methoxy-3-(trifluoromethyl)phenyl)-6,7-dihydropyrazolo[1,5-a]pyrazine-3,5(4H)-dicarboxamide]	0.01 to 10 nM	0.01 to 10 nM
NC(=O)c1c(-c2cc(F)cc(Cl)c2)nn2c1CN(C(=O)Nc1ccc(Cl)c(Cl)c1)CC2 [Compound 217, 2-(3-Chloro-5-fluorophenyl)-N^5-(3,4-dichlorophenyl)-6,7-dihydropyrazolo[1,5-a] pyrazine-3,5(4H)-dicarboxamide]	0.01 to 10 nM	0.01 to 10 nM
NC(=O)c1c(-c2ccc(F)c(Cl)c2)nn2c1CN(C(=O)Nc1ccc(OC(F)(F)F)cc1)CC2 [Compound 181, 2-(3-Chloro-4-fluorophenyl)-N^5-(4-(trifluoromethoxy)phenyl)-6,7-dihydropyrazolo[1,5-a] pyrazine-3,5(4H)-dicarboxamide]	0.01 to 10 nM	0.01 to 10 nM
NC(=O)c1c(-c2cccc(F)c2)nn2c1CN(C(=O)NC1CCN(CCC(F)(F)F)CC1)CC2 [Compound 103, 2-(3-Fluorophenyl)-N^5-(1-(3,3,3-trifluoropropyl)piperidin-4-yl)-6,7-dihydropyrazolo[1,5-a]pyrazine-3,5(4H)-dicarboxamide]	10 to 100 nM	0.01 to 10 nM
Cc1cc(F)cc(-c2nn3c(c2C(N)=O)CN(C(=O)Nc2ccc4ncsc4c2)CC3)c1 [Compound 225, N^5-(Benzo[d]thiazol-6-yl)-2-(3-fluoro-5-methylphenyl)-6,7-dihydropyrazolo[1,5-a] pyrazine-3,5(4H)-dicarboxamide]	0.01 to 10 nM	0.01 to 10 nM

Results, then the molecule that gave them:

IC50 (CK1ε)	IC50 (CK1δ)	Molecule
0.01 to 10 nM	0.01 to 10 nM	N-(tert-Butyl)-2-(3,4-dichlorophenyl)-7-methyl-6,7-dihydropyrazolo[1,5-a]pyrazine-3,5(4H)-dicarboxamide [Compound A32]
0.01 to 10 nM	0.01 to 10 nM	CC1CN(C(=O)Nc2ccc(C#N)cc2)Cc2c(C(N)=O)c(-c3cccc(Cl)c3)nn21 (stereo not shown) [Compound A13, 2-(3-Chlorophenyl)-N^5-(4-cyanophenyl)-7-methyl-6,7-dihydropyrazolo[1,5-a]pyrazine-3,5(4H)-dicarboxamide]
0.01 to 10 nM	0.01 to 10 nM	N#Cc1ccc(NC(=O)N2CCn3nc(-c4cccc(Cl)c4)c(C(N)=O)c3C2)cc1OC(F)(F)F [Compound A39, 2-(3-Chlorophenyl)-N^5-(4-cyano-3-(trifluoromethoxy)phenyl)-6,7-dihydropyrazolo[1,5-a]pyrazine-3,5(4H)-dicarboxamide]
100 to 2000 nM	100 to 2000 nM	N#Cc1ccc(NC(=O)N2CCn3nc(-c4ccc(F)c(Cl)c4)c(C(=O)NC4CC4)c3C2)cc1 [Compound A65, 2-(3-Chloro-4-fluorophenyl)-N^5-(4-cyanophenyl)-N^3-cyclopropyl-6,7-dihydropyrazolo[1,5-a]pyrazine-3,5(4H)-dicarboxamide]
100 to 2000 nM	100 to 2000 nM	CNC(=O)c1c(-c2ccc(F)c(Cl)c2)nn2c1CN(C(=O)Nc1ccc(C#N)cc1)CC2 [Compound A64, 2-(3-Chloro-4-fluorophenyl)-N^5-(4-cyanophenyl)-N3-methyl-6,7-dihydropyrazolo[1,5-a]pyrazine-3,5(4H)-dicarboxamide]
0.01 to 10 nM	0.01 to 10 nM	N#Cc1ccc(NC(=O)N2Cc3c(C(N)=O)c(-c4ccc(F)c(Cl)c4)nn3C3(C2)CC(F)(F)C3)cc1 [Compound A36, 2′-(3-Chloro-4-fluorophenyl)-N^5′-(4-cyanophenyl)-3,3-difluoro-4′H-spiro[cyclobutane-1,7′-pyrazolo[1,5-a]pyrazine]-3′,5′(6′H)-dicarboxamide]
100 to 2000 nM	100 to 2000 nM	CC1CN(C(=O)Nc2ccc(C#N)cc2)Cc2c(C(N)=O)c(-c3cccc(F)c3)nn21 (single isomer, unassigned) [Compound A79, N^5-(4-Cyanophenyl)-2-(3-fluorophenyl)-7-methyl-6,7-dihydropyrazolo[1,5-a]pyrazine-3,5(4H)-dicarboxamide]
0.01 to 10 nM	0.01 to 10 nM	NC(=O)c1c(-c2cccc(Cl)c2)nn2c1CN(C(=O)Nc1ccc(N3CCCCC3)cc1)C[C@H]2CF [Compound A10, (S)-2-(3-Chlorophenyl)-7-(fluoromethyl)-N^5-(4-(piperidin-1-yl)phenyl)-6,7-dihydropyrazolo[1,5-a]pyrazine-3,5(4H)-dicarboxamide]
0.01 to 10 nM	0.01 to 10 nM	CC(=O)N1CC2(C1)CN(C(=O)Nc1ccc(C#N)cc1)Cc1c(C(N)=O)c(-c3ccc(F)c(Cl)c3)nn12 [Compound A89, 1-Acetyl-2′-(3-chloro-4-fluorophenyl)-N^5′-(4-cyanophenyl)-4′H-spiro[azetidine-3,7′-pyrazolo[1,5-a]pyrazine]-3′,5′(6′H)-dicarboxamide]
